According to ChEMBL document CHEMBL3875218, “Bifunctional conjugates with potent inhibitory activity towards cyclooxygenase and histone deacetylase” (Bioorg Med Chem, 2017):
Activity calls are given as the source filed them. The calls are words filed in the database; no cut-off is given here.

Experiments:
LNCaP [1] = experiment: Induction of cell cycle arrest in human LNCAP cells assessed as accumulation at lesser G1 phase at 2.5 uM after 24 hrs by propidium iodide staining based FACS analysis (reference value: 1.59%); format: functional
[2] = molecular target: T1, Protein deacetylase HDAC6 (Homo sapiens) (UniProt Q9UBN7); experiment: Inhibition of HDAC6 in human LNCAP cells assessed as acetylated tubulin accumulation in cytosol at 1.5 uM after 24 hrs by Western blot analysis; format: cell-based
T1 sequence (whole entry): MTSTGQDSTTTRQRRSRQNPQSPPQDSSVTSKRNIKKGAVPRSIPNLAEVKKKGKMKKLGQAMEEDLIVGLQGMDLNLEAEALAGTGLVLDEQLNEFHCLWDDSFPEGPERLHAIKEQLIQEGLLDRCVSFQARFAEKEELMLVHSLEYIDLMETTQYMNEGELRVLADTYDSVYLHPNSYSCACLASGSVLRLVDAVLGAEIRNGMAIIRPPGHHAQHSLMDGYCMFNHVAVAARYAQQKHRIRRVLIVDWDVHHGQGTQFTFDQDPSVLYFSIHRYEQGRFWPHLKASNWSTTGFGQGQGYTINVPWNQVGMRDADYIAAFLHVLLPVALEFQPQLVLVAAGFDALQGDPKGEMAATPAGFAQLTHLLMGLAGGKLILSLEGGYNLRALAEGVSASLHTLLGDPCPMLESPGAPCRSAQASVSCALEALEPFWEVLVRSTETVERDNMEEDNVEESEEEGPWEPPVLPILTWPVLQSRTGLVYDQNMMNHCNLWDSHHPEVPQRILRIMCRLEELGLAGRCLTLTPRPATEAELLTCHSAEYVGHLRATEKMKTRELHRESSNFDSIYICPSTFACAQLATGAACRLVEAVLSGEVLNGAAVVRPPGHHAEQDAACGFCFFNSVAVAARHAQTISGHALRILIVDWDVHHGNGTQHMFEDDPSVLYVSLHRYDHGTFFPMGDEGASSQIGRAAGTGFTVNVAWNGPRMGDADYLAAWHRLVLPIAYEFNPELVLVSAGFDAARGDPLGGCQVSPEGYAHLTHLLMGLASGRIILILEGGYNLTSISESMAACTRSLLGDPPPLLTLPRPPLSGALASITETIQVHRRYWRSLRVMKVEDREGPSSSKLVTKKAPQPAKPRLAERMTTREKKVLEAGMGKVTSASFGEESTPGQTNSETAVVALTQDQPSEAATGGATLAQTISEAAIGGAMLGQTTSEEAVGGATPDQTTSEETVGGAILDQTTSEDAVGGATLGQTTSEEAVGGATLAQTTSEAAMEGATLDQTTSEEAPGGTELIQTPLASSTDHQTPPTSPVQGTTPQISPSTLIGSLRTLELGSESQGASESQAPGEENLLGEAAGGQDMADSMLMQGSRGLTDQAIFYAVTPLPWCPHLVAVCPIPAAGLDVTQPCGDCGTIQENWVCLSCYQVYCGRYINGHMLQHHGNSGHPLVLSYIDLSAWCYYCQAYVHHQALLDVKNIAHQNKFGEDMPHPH

Histone deacetylase 8 = molecular target: T2, Histone deacetylase 8 (Homo sapiens, UniProt Q9BY41); experiment: Inhibition of HDAC8 (unknown origin) after 2.5 hrs by SAMDI mass spectroscopic analysis
T2 sequence (Q9BY41 whole entry): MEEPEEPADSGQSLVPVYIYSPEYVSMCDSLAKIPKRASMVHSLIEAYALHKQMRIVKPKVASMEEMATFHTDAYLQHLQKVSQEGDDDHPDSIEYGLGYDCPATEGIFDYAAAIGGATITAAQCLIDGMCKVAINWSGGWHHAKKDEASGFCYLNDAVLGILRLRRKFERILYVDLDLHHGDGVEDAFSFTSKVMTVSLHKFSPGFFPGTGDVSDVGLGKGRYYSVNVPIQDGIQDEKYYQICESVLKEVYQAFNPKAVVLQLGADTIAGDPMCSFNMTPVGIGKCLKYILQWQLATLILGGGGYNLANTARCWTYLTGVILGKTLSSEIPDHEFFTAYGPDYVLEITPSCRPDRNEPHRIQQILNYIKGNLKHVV

Histone deacetylase 2 = Histone deacetylase 2 (Homo sapiens, UniProt Q92769); experiment: Inhibition of HDAC2 (unknown origin) after 24 hrs by SAMDI mass spectroscopic analysis
Histone deacetylase 2, sequence (Q92769 whole entry): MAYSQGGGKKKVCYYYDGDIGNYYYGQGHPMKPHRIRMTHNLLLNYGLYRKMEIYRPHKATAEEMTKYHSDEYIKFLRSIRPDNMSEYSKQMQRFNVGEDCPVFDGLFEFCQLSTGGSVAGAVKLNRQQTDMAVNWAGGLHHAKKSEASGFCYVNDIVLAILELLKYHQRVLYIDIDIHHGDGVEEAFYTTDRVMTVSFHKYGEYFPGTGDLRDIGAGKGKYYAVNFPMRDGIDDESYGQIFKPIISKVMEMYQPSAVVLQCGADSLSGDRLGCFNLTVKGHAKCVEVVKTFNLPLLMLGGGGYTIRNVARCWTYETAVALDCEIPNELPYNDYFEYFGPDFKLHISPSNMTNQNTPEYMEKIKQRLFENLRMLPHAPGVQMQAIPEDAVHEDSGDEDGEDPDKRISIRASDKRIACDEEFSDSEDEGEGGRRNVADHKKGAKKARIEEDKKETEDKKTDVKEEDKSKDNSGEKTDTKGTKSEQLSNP

[3] = Cytotoxicity against human HeLa cells assessed as cell growth inhibition after 72 hrs by MTT assay
LNCaP [4] = experiment: Induction of cell cycle arrest in human LNCAP cells assessed as accumulation at G2 phase at 2.5 uM after 24 hrs by propidium iodide staining based FACS analysis (reference value: 1.08%); format: functional
BEAS2B = conditions: Homo sapiens, at 1 µM
Description: Inhibition of HDAC in human BEAS2B cells assessed as reduction of NTHi-induced NFkappaB activation at 1 uM preincubated for 1 hr followed by NTHi stimulation for 5 hrs by luciferase reporter gene assay

[5] = molecular target: T3, Protein deacetylase HDAC6 (Homo sapiens, UniProt Q9UBN7); experiment: Inhibition of HDAC6 (unknown origin) after 20 hrs by SAMDI mass spectroscopic analysis
T3 sequence (Q9UBN7 whole entry): T1 sequence (whole entry)

[6] = Cytotoxicity against human LNCAP cells assessed as cell growth inhibition after 72 hrs by MTT assay; format: functional, cell-based
[7] = Cytotoxicity against African green monkey Vero cells assessed as cell growth inhibition after 72 hrs by MTT assay; format: toxicity, cell-based; conditions: African green monkey (Chlorocebus sabaeus)
LNCaP [8] = experiment: Induction of cell cycle arrest in human LNCAP cells assessed as accumulation at G1 phase at 2.5 uM after 24 hrs by propidium iodide staining based FACS analysis (reference value: 69.5%); format: functional
LNCaP [9] = experiment: Inhibition of class 1 HDAC in human LNCAP cells assessed as acetylated histone H4 accumulation at 1.5 uM after 24 hrs by Western blot analysis; format: cell-based
[10] = Cytotoxicity against human DU145 cells assessed as cell growth inhibition after 72 hrs by MTT assay; format: functional, cell-based; conditions: DU-145, 72 h
[11] = Cytotoxicity against human MCF7 cells assessed as cell growth inhibition after 72 hrs by MTT assay; format: functional, cell-based; conditions: MCF7, 72 h
[12] = Cytotoxicity against human HCT116 cells assessed as cell growth inhibition after 72 hrs by MTT assay; format: functional, cell-based; conditions: HCT-116, 72 h
LNCaP [13] = experiment: Induction of cell cycle arrest in human LNCAP cells assessed as accumulation at greater G2 phase at 2.5 uM after 24 hrs by propidium iodide staining based FACS analysis (reference value: 0.20%); format: functional
LNCaP [14] = experiment: Induction of cell cycle arrest in human LNCAP cells assessed as accumulation at S phase at 2.5 uM after 24 hrs by propidium iodide staining based FACS analysis (reference value: […]); format: functional
LNCaP [15] = experiment: Inhibition of HDAC in human LNCAP cells assessed as down regulation of COX2 expression at 1.5 uM after 24 hrs by Western blot analysis; format: cell-based
[16] = molecular target: T4, Prostaglandin G/H synthase 2 (Homo sapiens) (UniProt P35354); experiment: Inhibition of recombinant human COX2 at 10 uM using arachidonic acid as substrate preincubated for 15 mins followed by substrate addition for 2 mins by Cayman based fluorescence assay
T4 sequence (whole entry): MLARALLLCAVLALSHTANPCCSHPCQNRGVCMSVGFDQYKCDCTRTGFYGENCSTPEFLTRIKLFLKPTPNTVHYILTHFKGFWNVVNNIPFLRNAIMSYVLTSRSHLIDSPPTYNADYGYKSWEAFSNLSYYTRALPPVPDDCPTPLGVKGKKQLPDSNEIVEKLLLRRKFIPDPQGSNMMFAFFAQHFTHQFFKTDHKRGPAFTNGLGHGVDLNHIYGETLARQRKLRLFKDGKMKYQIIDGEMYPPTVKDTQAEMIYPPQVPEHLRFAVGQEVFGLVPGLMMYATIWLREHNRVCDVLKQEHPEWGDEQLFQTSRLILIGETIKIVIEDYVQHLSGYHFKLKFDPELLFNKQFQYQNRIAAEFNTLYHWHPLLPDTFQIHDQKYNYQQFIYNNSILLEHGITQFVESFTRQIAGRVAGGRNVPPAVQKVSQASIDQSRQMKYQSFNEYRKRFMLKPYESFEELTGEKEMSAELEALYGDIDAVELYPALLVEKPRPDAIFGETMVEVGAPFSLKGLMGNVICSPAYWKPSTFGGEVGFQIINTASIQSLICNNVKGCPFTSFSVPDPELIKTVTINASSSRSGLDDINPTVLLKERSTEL

[17] = Cytotoxicity against human A549 cells assessed as cell growth inhibition after 72 hrs by MTT assay; format: functional, cell-based; conditions: A549, 72 h
Histone deacetylase 1 = Histone deacetylase 1 (Homo sapiens, UniProt Q13547); experiment: Inhibition of HDAC1 (unknown origin) after 24 hrs by SAMDI mass spectroscopic analysis
Histone deacetylase 1, sequence (Q13547 whole entry): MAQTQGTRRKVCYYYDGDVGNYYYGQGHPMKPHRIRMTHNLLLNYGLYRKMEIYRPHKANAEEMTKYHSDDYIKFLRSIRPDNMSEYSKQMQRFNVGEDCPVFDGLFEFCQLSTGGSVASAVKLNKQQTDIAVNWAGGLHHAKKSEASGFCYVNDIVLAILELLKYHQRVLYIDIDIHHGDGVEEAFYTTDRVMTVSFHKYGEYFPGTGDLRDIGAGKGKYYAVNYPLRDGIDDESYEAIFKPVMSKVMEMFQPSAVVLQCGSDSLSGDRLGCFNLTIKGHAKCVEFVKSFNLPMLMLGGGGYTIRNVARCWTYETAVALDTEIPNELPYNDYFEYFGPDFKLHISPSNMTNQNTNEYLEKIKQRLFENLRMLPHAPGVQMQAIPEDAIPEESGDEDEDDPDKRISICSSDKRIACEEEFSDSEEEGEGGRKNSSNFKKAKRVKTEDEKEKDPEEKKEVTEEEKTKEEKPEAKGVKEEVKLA

Histone deacetylase 3 = Histone deacetylase 3 (Homo sapiens, UniProt O15379); experiment: Inhibition of HDAC3 (unknown origin) after 5 hrs by SAMDI mass spectroscopic analysis
Histone deacetylase 3, sequence (O15379 whole entry): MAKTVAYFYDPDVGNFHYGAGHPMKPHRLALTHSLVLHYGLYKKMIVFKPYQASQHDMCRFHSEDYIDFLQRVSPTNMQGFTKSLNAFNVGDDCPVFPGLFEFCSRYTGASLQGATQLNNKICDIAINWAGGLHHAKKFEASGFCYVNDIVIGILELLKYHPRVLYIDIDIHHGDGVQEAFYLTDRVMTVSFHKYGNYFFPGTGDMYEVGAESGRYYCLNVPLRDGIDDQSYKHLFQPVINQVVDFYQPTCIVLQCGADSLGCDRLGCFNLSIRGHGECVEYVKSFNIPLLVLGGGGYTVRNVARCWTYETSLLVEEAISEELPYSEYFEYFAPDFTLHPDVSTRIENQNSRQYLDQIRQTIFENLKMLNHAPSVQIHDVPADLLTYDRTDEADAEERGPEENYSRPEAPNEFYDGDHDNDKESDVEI

LNCaP [18] = experiment: Induction of cell cycle arrest in human LNCAP cells assessed as accumulation at lesser G1 phase at 40 uM after 24 hrs by propidium iodide staining based FACS analysis (reference value: 1.59%); format: functional
LNCaP [19] = experiment: Induction of cell cycle arrest in human LNCAP cells assessed as accumulation at S phase at 40 uM after 24 hrs by propidium iodide staining based FACS analysis (reference value: […]); format: functional
LNCaP [20] = conditions: Homo sapiens, at 10 µM
Description: Inhibition of HDAC in human LNCAP cells assessed as down regulation of androgen receptor expression at 10 uM after 24 hrs by Western blot analysis

LNCaP [21] = experiment: Induction of cell cycle arrest in human LNCAP cells assessed as accumulation at G1 phase at 40 uM after 24 hrs by propidium iodide staining based FACS analysis (reference value: 69.5%); format: functional
[22] = Cytotoxicity against human MCF7 cells assessed as cell growth inhibition at 100 uM after 72 hrs by MTT assay; format: functional; conditions: MCF7, 72 h, read-out: GI
LNCaP [23] = experiment: Induction of cell cycle arrest in human LNCAP cells assessed as accumulation at greater G2 phase at 40 uM after 24 hrs by propidium iodide staining based FACS analysis (reference value: 0.20%); format: functional
[24] = molecular target: T5, Prostaglandin G/H synthase 2 (Homo sapiens, UniProt P35354); experiment: Inhibition of recombinant human COX2 using arachidonic acid as substrate preincubated for 15 mins followed by substrate addition for 2 mins by Cayman based fluorescence assay
T5 sequence (P35354 whole entry): T4 sequence (whole entry)

LNCaP [25] = experiment: Induction of cell cycle arrest in human LNCAP cells assessed as accumulation at G2 phase at 40 uM after 24 hrs by propidium iodide staining based FACS analysis (reference value: 1.08%); format: functional

| Structure (SMILES) | IC50 (Histone deacetylase 8) | IC50 (Histone deacetylase 2) | IC50 [5] | inhibition [16] | IC50 (Histone deacetylase 1) | IC50 (Histone deacetylase 3) | Activity (LNCaP [1]) | Activity (LNCaP [4]) | inhibition (BEAS2B) | Activity (LNCaP [8]) | IC50 [12] | Activity (LNCaP [13]) | Activity (LNCaP [14]) | Activity (LNCaP [18]) | Activity (LNCaP [19]) | Activity (LNCaP [21]) | inhibition of growth at 100 µM [22] | Activity (LNCaP [23]) | further results |
| --- | --- | --- | --- | --- | --- | --- | --- | --- | --- | --- | --- | --- | --- | --- | --- | --- | --- | --- | --- |
| COc1ccc2c(c1)c(CC(=O)O)c(C)n2C(=O)c1ccc(Cl)cc1 [INDOMETHACIN] |  |  |  |  |  |  |  |  |  |  |  |  |  | 2.81% | 23.5% | 71.5% | 5.2% | 0.88% | inhibition (LNCaP [20]): Active |
| Cc1ccc(-c2cc(C(=O)NCCCCCCC(=O)NO)nn2-c2ccc(S(C)(=O)=O)cc2)cc1 | 345 nM |  | 50 nM | 60.2% | 261 nM | 338 nM | 0.029% | 0.5% | Active | 85.9% |  | 0.21% | 13.8% |  |  |  |  |  | IC50 [24]: 4440 nM |
| Cc1ccc(-c2cc(C(F)(F)F)nn2-c2ccc(S(N)(=O)=O)cc2)cc1 [CELECOXIB] |  |  |  |  |  |  |  |  |  |  |  |  |  | 0.59% | 28.4% | 69.2% |  | 0.35% | Activity (LNCaP [25]): 0.85% |

More lines, main results first:

| IC50 (Histone deacetylase 8) | IC50 (Histone deacetylase 2) | IC50 [5] | inhibition [16] | IC50 (Histone deacetylase 1) | IC50 (Histone deacetylase 3) | Structure (SMILES) | Activity (LNCaP [1]) | Activity (LNCaP [4]) | inhibition (BEAS2B) | Activity (LNCaP [8]) | IC50 [12] | Activity (LNCaP [13]) | Activity (LNCaP [14]) | Activity (LNCaP [18]) | Activity (LNCaP [19]) | Activity (LNCaP [21]) | inhibition of growth at 100 µM [22] | Activity (LNCaP [23]) | further results |
| --- | --- | --- | --- | --- | --- | --- | --- | --- | --- | --- | --- | --- | --- | --- | --- | --- | --- | --- | --- |
| 135 nM | 407 nM | 10 nM | 50.8% | 89 nM | 35 nM | COC(=O)Cc1c(C)n(Cc2ccc(-c3cn(CCCCCCC(=O)NO)nn3)cc2)c2ccc(OC)cc12 | 0.053% | 1.87% | Active | 46.7% | 1670 nM | 2.06% | 47.1% |  |  |  |  |  | inhibition [2]: Active; IC50 [3]: 4020 nM; IC50 [6]: 1350 nM; IC50 at 72 h [7]: 5820 nM; inhibition (LNCaP [9]): Active; IC50 [10]: 8170 nM; IC50 [11]: 9610 nM; inhibition (LNCaP [15]): Active; IC50 [17]: 8220 nM |
| 116 nM | 302 nM | 22 nM | 40.6% | 111 nM | 59 nM | COc1ccc2c(c1)c(CC(=O)O)c(C)n2Cc1ccc(-c2cn(CCCCCCC(=O)NO)nn2)cc1 |  |  |  |  | 9900 nM |  |  |  |  |  | 47.8% |  |  |
